ChEMBL document CHEMBL2311349, “Evidence for a new binding mode to GSK-3: allosteric regulation by the marine compound palinurin” (Eur J Med Chem, 2013)
The source made the active and inactive calls. The rule behind the calls is not given here.

Experiments:
[1] = target: T1, Glycogen synthase kinase-3 beta (Homo sapiens, UniProt P49841); assay: Inhibition of human recombinant GSK-3beta using GS2 peptide as substrate and [gamma33P]-ATP after 30 mins by scintillation counting
Target sequence in this assay (P49841 whole entry): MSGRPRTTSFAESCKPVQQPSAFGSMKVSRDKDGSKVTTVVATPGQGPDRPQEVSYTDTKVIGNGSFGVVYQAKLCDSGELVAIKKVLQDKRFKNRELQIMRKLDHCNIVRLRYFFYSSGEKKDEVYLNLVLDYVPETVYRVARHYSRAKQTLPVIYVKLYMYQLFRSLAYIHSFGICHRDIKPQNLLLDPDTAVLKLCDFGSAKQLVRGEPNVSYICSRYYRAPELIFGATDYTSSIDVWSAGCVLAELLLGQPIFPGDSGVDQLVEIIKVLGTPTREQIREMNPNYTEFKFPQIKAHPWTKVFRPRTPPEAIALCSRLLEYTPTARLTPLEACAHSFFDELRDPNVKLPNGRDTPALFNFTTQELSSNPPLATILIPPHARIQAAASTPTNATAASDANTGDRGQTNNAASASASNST

[2] = target: Glycogen synthase kinase-3 alpha (Homo sapiens, UniProt P49840); assay: Inhibition of human recombinant GSK-3alpha using GS2 peptide as substrate and [gamma33P]-ATP after 12 mins by scintillation counting
Chain of Glycogen synthase kinase-3 alpha (P49840 whole entry): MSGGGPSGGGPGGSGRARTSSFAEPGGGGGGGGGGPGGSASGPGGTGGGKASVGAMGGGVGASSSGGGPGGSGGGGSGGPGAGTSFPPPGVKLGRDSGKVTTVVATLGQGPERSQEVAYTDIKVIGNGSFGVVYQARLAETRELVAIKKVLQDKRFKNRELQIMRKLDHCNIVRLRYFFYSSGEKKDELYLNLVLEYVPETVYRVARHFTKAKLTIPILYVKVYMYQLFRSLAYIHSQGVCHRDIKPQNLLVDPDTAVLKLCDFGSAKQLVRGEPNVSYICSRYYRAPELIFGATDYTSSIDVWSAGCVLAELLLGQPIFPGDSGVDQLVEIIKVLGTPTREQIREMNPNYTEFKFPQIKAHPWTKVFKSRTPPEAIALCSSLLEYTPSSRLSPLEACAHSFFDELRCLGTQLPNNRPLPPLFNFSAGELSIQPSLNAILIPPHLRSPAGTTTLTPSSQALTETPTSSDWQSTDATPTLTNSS

[3] = Inhibition of human recombinant MAPK using […] as substrate and [gamma33P]-ATP after 15 mins by scintillation counting
Casein kinase II [4] = target: Casein kinase II (Homo sapiens, UniProt P19784+P67870+P68400); assay: (§1) Inhibition of human recombinant CK2 using GS2 peptide as substrate and [gamma33P]-ATP after 30 mins by scintillation counting; assay type: protein-complex assay
Chain of Casein kinase II (Homo sapiens, UniProt P19784+P67870+P68400) (P67870 whole entry): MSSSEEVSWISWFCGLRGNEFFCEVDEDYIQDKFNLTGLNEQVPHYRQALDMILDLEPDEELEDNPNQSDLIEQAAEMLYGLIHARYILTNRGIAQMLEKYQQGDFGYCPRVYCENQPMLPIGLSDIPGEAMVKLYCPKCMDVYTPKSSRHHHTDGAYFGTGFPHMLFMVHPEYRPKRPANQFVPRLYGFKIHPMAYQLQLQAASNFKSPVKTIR
Chain of Casein kinase II (Homo sapiens, UniProt P19784+P67870+P68400) (P68400 whole entry): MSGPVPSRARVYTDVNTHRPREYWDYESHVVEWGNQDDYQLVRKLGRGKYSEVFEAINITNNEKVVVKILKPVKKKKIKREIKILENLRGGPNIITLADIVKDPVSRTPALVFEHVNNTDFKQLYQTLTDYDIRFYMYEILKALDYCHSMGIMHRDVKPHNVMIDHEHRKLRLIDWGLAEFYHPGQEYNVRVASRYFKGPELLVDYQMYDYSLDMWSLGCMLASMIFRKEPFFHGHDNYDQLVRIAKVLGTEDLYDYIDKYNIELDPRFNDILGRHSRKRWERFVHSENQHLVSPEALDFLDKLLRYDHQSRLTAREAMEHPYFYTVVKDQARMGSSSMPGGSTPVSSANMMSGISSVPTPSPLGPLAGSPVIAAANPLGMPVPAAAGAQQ
Chain of Casein kinase II (Homo sapiens, UniProt P19784+P67870+P68400) (P19784 whole entry): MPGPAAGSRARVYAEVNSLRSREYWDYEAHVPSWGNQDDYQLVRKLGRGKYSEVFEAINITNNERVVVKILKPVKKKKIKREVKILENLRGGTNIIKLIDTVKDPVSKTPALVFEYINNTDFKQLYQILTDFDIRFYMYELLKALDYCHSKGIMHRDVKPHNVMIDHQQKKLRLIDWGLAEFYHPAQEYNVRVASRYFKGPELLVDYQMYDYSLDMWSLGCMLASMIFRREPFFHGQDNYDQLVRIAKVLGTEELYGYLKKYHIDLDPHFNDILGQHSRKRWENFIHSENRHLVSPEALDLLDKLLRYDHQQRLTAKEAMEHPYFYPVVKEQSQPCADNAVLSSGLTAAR

Casein kinase II [5] = target: Casein kinase II (Homo sapiens, UniProt P67870+P68400+P19784); assay: as §1; assay type: protein-complex assay
Chain of Casein kinase II (Homo sapiens, UniProt P67870+P68400+P19784) (P67870 whole entry): as the sequence (P67870 whole entry) above
Chain of Casein kinase II (Homo sapiens, UniProt P67870+P68400+P19784) (P68400 whole entry): as the sequence (P68400 whole entry) above
Chain of Casein kinase II (Homo sapiens, UniProt P67870+P68400+P19784) (P19784 whole entry): as the sequence (P19784 whole entry) above

[6] = target: Cyclin-dependent kinase 5 (Homo sapiens, UniProt Q00535); assay: Inhibition of human recombinant CDK5 using histone H1 as substrate and [gamma33P]-ATP after 20 mins by scintillation counting
Chain of Cyclin-dependent kinase 5 (Q00535 whole entry): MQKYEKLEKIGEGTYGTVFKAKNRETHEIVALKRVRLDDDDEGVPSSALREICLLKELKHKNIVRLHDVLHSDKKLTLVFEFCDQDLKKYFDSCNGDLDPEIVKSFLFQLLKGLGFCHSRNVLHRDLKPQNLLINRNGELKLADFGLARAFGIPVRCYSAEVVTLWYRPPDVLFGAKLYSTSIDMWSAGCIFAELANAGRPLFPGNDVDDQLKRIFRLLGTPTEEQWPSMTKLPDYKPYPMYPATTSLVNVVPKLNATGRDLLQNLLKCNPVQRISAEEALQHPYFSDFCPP

[7] = target: Cyclin-dependent kinase 1 (Homo sapiens, UniProt P06493); assay: Inhibition of human recombinant CDK1 using histone H1 as substrate and [gamma33P]-ATP after 15 mins by scintillation counting
Chain of Cyclin-dependent kinase 1 (P06493 whole entry): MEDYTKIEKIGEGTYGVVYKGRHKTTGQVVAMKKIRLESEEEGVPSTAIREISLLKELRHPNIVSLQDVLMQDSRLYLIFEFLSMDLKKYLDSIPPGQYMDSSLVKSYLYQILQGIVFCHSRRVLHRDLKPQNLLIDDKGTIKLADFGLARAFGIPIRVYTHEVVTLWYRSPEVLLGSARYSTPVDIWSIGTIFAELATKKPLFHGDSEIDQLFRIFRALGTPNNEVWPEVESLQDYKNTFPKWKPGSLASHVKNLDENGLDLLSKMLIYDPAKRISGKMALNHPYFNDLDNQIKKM

[8] = target: T1, Glycogen synthase kinase-3 beta; conditions: SH-SY5Y, 15 to 200 uM
Target sequence in this assay (P49841 whole entry, looked up): as the sequence (P49841 whole entry) above
Description: Inhibition of GSK-3beta in human SH-SY5Y cells assessed as reduction of tau phosphorylation at 15 to 200 uM after 18 hrs by ELISA sandwich method

[9] = target: T1, Glycogen synthase kinase-3 beta; assay: Inhibition of human recombinant GSK-3beta using GS2 peptide as substrate and [gamma33P]-ATP at 50 uM after 30 mins by scintillation counting
Target sequence in this assay (P49841 whole entry, looked up): as the sequence (P49841 whole entry) above

[10] = Cytotoxicity against human SH-SY5Y cells assessed as intracellular LDH level after 18 hrs; assay type: cell-based

Work on `CCCCCCCCCCCCCC(=O)OC[C@H](O)[C@H]1OC(=O)C(O)=C1O` yielded an IC50 ([1]; read-out: IC50) greater than 5.8 µM and an IC50 ([1]; read-out: pIC50 (converted)) of 5.75 µM.

Work on `CC1=C(O)/C(=C/[C@H](C)CC/C=C(/C)CCCc2coc(Cc3ccoc3)c2)OC1=O` [IRCININ 2] yielded an IC50 ([1]; read-out: IC50) of 2.3 µM.

`CC1=C(O)[C@@H](C/C(C)=C/CCC(C)/C=C/C=C(\C)CCCc2ccoc2)OC1=O` (stereo in doubt; A) [PALINURIN] gave an IC50 ([1]; read-out: IC50) of 2.6 µM, an IC50 [2] of 1.6 µM and an IC50 [3] greater than 100 µM. The pIC50 [3] was less than 4, the IC50 (Casein kinase II [4]) was greater than 100 µM and the IC50 (Casein kinase II [5]) was greater than 100 µM. The IC50 ([6]; read-out: IC50) was greater than 25 µM, the IC50 ([6]; read-out: pIC50 (converted)) was greater than 25.1 µM and the IC50 ([7]; read-out: IC50) was greater than 100 µM. It also gave an IC50 ([7]; read-out: pIC50 (converted)) greater than 100 µM.

In the case of `CC1=C(O)/C(=C/[C@H](C)CCC/C(C)=C/CCc2coc(Cc3ccoc3)c2)OC1=O` [IRCININ 1], the IC50 ([1]; read-out: IC50) is reported as 0.8 µM.

For `CC1=C(O)[C@@H](C/C(C)=C/CCC(C)/C=C/C=C(\C)CCCc2ccoc2)OC1=O` (stereo in doubt; A), the inhibition [8] was “Active”.

Compound `O=C1O[C@H]([C@@H](O)CO)C(O)=C1O` has an inhibition [9] of 80%.

Compound `CCCCCCCC(=O)OC[C@H](O)[C@H]1OC(=O)C(O)=C1O` has an IC50 ([1]; read-out: IC50) greater than 50 µM, an IC50 ([1]; read-out: pIC50 (converted)) greater than 50.1 µM and an inhibition [9] of 65%.

With `CC1=C(O)[C@@H](C/C(C)=C/CCC(C)/C=C/C=C(\C)CCCc2ccoc2)OC1=O` (stereo in doubt; B) the inhibition [8] was “Active”.

Work on `CCCCCCCCCC(=O)OC[C@H](O)[C@H]1OC(=O)C(O)=C1O` yielded an IC50 ([1]; read-out: IC50) of 6.1 µM and an inhibition [9] of 86%.

In the case of `CC1=C(O)[C@@H](C/C(C)=C/CCC(C)/C=C/C=C(\C)CCCc2ccoc2)OC1=O` (stereo in doubt; B) [PALINURIN], the IC50 ([1]; read-out: IC50) is reported as 1.9 µM and the Activity [10] is reported as “Non-toxic”.
